From patent EP0816848A1, “Method for comparative screening of substances with pharmacological activity” (BOEHRINGER INGELHEIM INTERNATIONAL GmbH, priority 1996, dated 1998)
Values belong to the compound of their own block, whether it stands above or below them.

What was measured:
HER-2 = target: T1, HER-2 (Homo sapiens, UniProt P04626, V659E); assay: Proliferation assay (MTS) dose-response, HER-2 test cell line; type: cell-based; conditions: HER-2 test cell line (Fig. 7)
T1 construct: enthält nun die komplette kodierende Region der mutierten, konstitutiv aktiven Form HER2(V659E); expressed in transfected cells
T1 sequence (P04626 23-1255 V659E): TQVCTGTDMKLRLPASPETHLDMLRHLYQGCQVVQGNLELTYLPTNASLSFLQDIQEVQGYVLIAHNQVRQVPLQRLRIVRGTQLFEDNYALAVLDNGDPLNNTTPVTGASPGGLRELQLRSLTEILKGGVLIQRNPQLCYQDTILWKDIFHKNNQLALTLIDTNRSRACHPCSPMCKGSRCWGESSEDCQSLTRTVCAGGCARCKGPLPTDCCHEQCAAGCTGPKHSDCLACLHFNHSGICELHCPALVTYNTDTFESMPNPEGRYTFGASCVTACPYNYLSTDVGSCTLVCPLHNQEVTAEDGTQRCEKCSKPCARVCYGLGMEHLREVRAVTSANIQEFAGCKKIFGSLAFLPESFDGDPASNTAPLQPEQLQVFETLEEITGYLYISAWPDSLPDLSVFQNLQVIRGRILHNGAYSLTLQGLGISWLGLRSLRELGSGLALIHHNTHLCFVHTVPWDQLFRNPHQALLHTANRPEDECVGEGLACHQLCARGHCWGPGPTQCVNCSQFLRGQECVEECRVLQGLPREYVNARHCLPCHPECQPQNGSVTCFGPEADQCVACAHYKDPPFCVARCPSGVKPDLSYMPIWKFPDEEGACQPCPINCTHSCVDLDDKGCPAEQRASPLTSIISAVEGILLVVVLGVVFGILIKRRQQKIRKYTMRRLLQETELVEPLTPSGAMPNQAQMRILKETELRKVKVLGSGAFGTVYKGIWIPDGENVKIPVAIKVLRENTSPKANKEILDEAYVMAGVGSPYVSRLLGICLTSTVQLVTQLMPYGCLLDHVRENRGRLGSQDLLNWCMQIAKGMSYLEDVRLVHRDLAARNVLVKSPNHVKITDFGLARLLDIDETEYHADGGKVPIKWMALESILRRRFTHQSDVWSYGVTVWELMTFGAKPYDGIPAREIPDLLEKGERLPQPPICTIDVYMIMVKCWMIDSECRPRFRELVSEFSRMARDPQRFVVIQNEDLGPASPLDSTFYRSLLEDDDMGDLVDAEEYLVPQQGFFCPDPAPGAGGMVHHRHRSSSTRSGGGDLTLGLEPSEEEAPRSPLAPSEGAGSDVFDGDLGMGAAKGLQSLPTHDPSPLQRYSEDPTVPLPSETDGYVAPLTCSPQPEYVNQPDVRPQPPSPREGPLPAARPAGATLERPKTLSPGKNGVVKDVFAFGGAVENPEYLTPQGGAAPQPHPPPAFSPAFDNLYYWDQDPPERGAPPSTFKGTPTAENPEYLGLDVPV
Procedure: FDC-P1-Zellen (Dexter et al., 1980), die IL-3-abhängig wachsen, wurden mit Plasmid pAHygCMVHer2(V659E) folgendermaßen transfiziert: Etwa 1x10^7 Zellen wurden in IMDM-Medium (Bio-Whittaker) mit 10 µg Plasmid DNA gemischt und mit einem Elektroporator (Hoefer, Progenetor II) bei 980 µF, 280 V für 1000 ms elektroporiert. Die Zellen wurden in IMDM-Medium in Anwesenheit von 10% hitzeinaktiviertem fötalem Kälberserum, 50 µM β-Mercaptoethanol, Standardantibiotika, und 1% IL-3 bei 37°C unter 5% CO2 gehalten und durch Zugabe von 300 mg/l Hygromycin B (Boehringer Mannheim) selektioniert. Nach erfolgreicher Selektion wurden die Zellen langsam von IL-3 entwöhnt, der IL-3-unabhängig wachsende Zellpool anschließend in Methocel subkloniert. Einzelne Klone wurden gepickt und in Medium ohne IL-3 hochgezogen.
Einzelne Klone wurden in einem Fluoreszenz-aktivierten Zell-Sorter (Becton-Dickinson, FACSort) auf Oberflächenexpression von HER2 getestet, dabei wurde als primärer Antikörper ein gegen die extrazelluläre Domäne von HER2 gerichteter Maus-Antikörper verwendet (Oncogene Science, c-neu (Ab-2)), und als sekundärer Antikörper ein Fluorescein Isothiocyanat (FITC)-konjugierter anti-Maus IgG Antikörper (Dianova, Hamburg). Der Subklon mit der besten Oberflächenexpression von HER2(V659E), genannt FDCP/Her2-C42#16, wurde für das Screenen verwendet. […]

Ras = target: T2, Ras (Homo sapiens, UniProt P01112, G12V); assay: Proliferation assay (MTS) dose-response, Ras test cell line ("FHR V12"); type: cell-based; conditions: Ras test cell line "FHR V12" (Fig. 7)
T2 construct: expressed in transfected cells
T2 sequence (P01112 1-186 G12V): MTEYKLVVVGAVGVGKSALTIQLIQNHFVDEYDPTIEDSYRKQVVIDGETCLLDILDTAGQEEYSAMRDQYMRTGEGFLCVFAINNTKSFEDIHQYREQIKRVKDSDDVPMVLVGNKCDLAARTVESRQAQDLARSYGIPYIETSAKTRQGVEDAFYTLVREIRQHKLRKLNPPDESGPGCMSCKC
Procedure: (§1) FDC-P1 Zellen (Dexter et al., 1980) wurden in IMDM Medium (BioWhittaker), versetzt mit 10% hitzeinaktiviertem fötalem Kälberserum (FCS), 2 mM Glutamin, 50 µM β-Mercaptoäthanol und 1% IL-3 angesetzt und bei 37°C in 5% CO2 inkubiert. 10^7 Zellen pro Transfektion wurden 5 min bei 1200 UpM bei Raumtemperatur abzentrifugiert (Heraeus Minifuge), einmal mit serumfreiem RPMI-1640 Medium gewaschen, und in 1 ml serumfreiem Medium suspendiert. 800 µl dieser Zellsuspension wurden in einer Elektroporationsküvette mit 20 µg Plasmid pGDV12ras gemischt und mit einem einzelnen Stromstoß von 280 V, 980 µF und 1000 ms elektroporiert (Progenetor II, Hoefer Instruments). Die Zellen wurden in 10 ml Kulturmedium mit 1% IL-3 verdünnt und bei 37°C, 5% CO2 inkubiert. Zwei Tage nach der Transfektion wurden die Zellen mit frischem Medium 3-fach verdünnt und 250 µg/ml G-418 zur Selektion auf Neomycin-resistenz zugesetzt. An den darauffolgenden Tagen wurde die G-418 Konzentration auf 500, 750 und 1000 µg/ml erhöht. Tote Zellen wurden mittels Zentrifugation durch einen Ficoll-Gradienten entfernt. Dazu wurden die Zellen zuerst mittels Zentrifugation (5 min, 1200 UpM) in einem geringen Volumen aufkonzentriert und in einem Zentrifugenröhrchen über Ficoll-Paque (Pharmacia) geschichtet. […]

HGF-R = assay: Proliferation assay (MTS) dose-response, HGF-R test cell line ("TPRmet"); type: cell-based, human; conditions: HGF-R test cell line "TPRmet" (Fig. 7)
EGF-Rezeptor = EGF-Rezeptor (Homo sapiens, UniProt P00533); assay: c-fos promoter luciferase reporter assay in KB-B4 cells, EGF-induced; type: cell-based; conditions: 1 ng/ml EGF, 6 h (Fig. 6)
EGF-Rezeptor, sequence (P00533 25-1210): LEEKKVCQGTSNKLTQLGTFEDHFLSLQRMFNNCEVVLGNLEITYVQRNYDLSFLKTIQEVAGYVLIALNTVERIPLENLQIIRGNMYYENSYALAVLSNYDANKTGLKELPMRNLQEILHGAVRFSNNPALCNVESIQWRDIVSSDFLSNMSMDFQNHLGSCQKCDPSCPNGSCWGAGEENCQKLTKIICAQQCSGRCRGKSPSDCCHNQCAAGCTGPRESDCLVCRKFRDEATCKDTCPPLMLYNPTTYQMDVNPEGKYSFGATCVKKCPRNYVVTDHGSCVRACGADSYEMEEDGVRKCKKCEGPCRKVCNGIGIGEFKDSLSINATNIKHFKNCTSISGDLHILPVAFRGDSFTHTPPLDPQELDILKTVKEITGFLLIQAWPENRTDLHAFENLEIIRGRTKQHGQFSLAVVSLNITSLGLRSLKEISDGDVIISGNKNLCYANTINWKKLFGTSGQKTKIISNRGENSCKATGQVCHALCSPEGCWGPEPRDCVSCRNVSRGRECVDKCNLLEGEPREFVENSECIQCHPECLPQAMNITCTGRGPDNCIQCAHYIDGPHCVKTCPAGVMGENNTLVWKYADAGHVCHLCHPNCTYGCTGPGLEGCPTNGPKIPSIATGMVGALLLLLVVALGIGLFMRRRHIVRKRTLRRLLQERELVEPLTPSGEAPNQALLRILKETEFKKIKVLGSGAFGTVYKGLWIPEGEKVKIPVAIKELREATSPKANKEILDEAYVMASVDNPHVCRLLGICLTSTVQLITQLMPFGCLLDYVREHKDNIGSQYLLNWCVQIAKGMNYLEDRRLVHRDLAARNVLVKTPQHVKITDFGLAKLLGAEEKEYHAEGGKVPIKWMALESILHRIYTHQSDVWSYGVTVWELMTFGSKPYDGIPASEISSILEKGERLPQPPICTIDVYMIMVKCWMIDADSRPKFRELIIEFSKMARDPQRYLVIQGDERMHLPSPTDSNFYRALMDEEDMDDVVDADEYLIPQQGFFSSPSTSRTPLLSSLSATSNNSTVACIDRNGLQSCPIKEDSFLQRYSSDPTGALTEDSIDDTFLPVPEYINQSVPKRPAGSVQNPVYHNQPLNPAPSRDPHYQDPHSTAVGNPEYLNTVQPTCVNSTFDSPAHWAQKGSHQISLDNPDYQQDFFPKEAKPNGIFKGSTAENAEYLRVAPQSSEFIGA

H-ras^Val12 [1] = assay: Detection of inhibition of Ras farnesylation (immunoprecipitation, SDS gel, Western blot) in FHRV12cc21 cells; type: cell-based, mouse; conditions: 5 µM, 48 h, 1% IL-3
Procedure: Nachweis der H-ras^Val12 Expression FHRV12cc21 und untransfizierte FDC-P1 Zellen wurden in IMDM Medium mit 10% FCS und 1% IL-3 gezüchtet. Zum Nachweis der Hemmung der posttranslationalen Modifikation von H-ras^Val12 durch Farnesylierung wurden die Zellen für 48 Stunden mit 5 µM des Protein-Farnesyltransferase-Inhibitors L-739.749 (Kohl et al., 1994) inkubiert. Die Zellen wurden mit PBS gewaschen und in PBSTDS (1% Triton X-100, 0.5% Natriumdesoxycholat, 0.1% Natriumdodecylsulfat in PBS) 5 min bei 4°C lysiert. Die Zellysate wurden durch Zentrifugation (20 min 14.000x g, 4°C) geklärt. Ras Proteine wurden durch Zusatz von 1 µg monoklonalen Ratten Antikörper Y13-238 (Oncogene Science) und Protein-G Plus / Protein-A Agarose (Oncogene Science) über Nacht bei 4°C immunpräzipitiert. Die Präzipitate wurden zweimal mit PBSTDS Puffer gewaschen und anschließend in SDS-Probenpuffer mit 3% β-Mercaptoethanol ausgenommen. Die Proteine wurden in einem 20%igen SDS-Polyacrylamidgel aufgetrennt, auf eine Immobilon-Membran (Millipore) transferiert und nach Absättigen der Membran mit 10% FCS, 1% Rinderserumalbumin, 1% Tween-20 in PBS, durch aufeinanderfolgende Inkubation mit einem Ras^Val12 spezifischen monoklonalen Antikörper (pan-Ras^Val12, Oncogene Science) und einem sekundären anti-Maus-IgG - Alkalische Phosphatase-Konjugat durch Färbereaktion mit NBT und BCIP (Promega) nachgewiesen. […]

H-ras^Val12 [2] = assay: Inhibition of IL-3 independent growth of H-ras^Val12 transfected FDC-P1 cells (FHRV12cc21), DNA synthesis by [3H]thymidine incorporation; type: cell-based, mouse; conditions: IL-3 free medium (Fig. 2)
Procedure: as §1

H-ras^Val12 [3] = assay: Inhibition of IL-3 independent growth of H-ras^Val12 transfected FDC-P1 cells (FHRV12cc21), viability by MTS assay; type: cell-based, mouse; conditions: IL-3 free medium, relative absorption (Fig. 1)
Procedure: as §1

Konzentration, bei der Effekte auf die Proliferation der Zellen zu messen sind, relative to IC50 on the EGF-dependent cell line (HER-2): ≥ 100 fach
Konzentration, bei der Effekte auf die Proliferation der Zellen zu messen sind, relative to IC50 on the EGF-dependent cell line (Ras): ≥ 100 fach
SMILES: Clc1cccc(Nc2ncnc3cnc(NC4CC4)nc23)c1 [4-[(3-Chlorphenyl)amino]-6-(cyclopropylamino)-pyrimido-[5,4-d]pyrimidin]
Konzentration, bei der Effekte auf die Proliferation der Zellen zu messen sind, relative to IC50 on the EGF-dependent cell line (HGF-R): ≥ 100 fach

Inhibierung der Luciferase-Induktion durch EGF (EGF-Rezeptor): inhibitorische Wirkung
SMILES: COc1cc2ncnc(Nc3cccc(C)c3)c2cc1OC [6,7-Dimethoxy-4-(3-methylphenylamino)chinazolin]

SMILES: CC[C@H](C)[C@@H](CO[C@@H](Cc1ccccc1)C(=O)N[C@@H](CCS(C)(=O)=O)C(=O)OC)NC[C@@H](N)CS [L-739.749, 2(S)-{2(S)-[2(R)-Amino-3-mercapto]propylamino-3(S)-methyl}pentyloxy-3-phenylpropionylmethioninsulfonmethyl ester]
Ras-Protein in der unmodifizierten (nicht farnesylierten) Form (H-ras^Val12 [1]): > 50%
Hemmung der H-ras^Val12 abhängigen Proliferation (DNA-Synthese) (H-ras^Val12 [2]): Hemmung der H-ras^Val12 abhängigen Proliferation (DNA-Synthese)
Hemmung der H-ras^Val12 abhängigen Proliferation (Viabilität) (H-ras^Val12 [3]): Hemmung der H-ras^Val12 abhängigen Proliferation (Viabilität)
